Measurements taken from patent US20090118310A1, “Activated Cdc42-associated kinase (ACK) as a therapeutic target for Ras-induced cancer” (UNIVERSITY OF MEDICINE AND DENTISTRY OF NEW JERSEY, priority 2005, published 2009).
d = 2'-deoxy (DNA); r = 2'-OH (RNA)

Experiments:
[1] = biological target: T1, ACK-1 kinase (GST-ACKD, amino acids 101-441) (Homo sapiens, UniProt Q07912); experiment: In vitro kinase assay of GST-ACKD with MBP as substrate; type: biochemical; conditions: FIG. 4C dose response, FIG. 4D inhibitors at 200 nmol/L
T1 construct: made in house; host or cells: Escherichia coli BL21 (pGEX-2TH vector)
Protocol: Escherichia coli BL21 cells transformed with pGEX-ACKD were grown at 30° C. to early logarithmic phase and protein expression was induced by adding 0.1 mmol/L isopropyl-L-thio-β-D-galactopyranoside. After 3 hours of incubation, cells were harvested, resuspended in lysis buffer [50 mmol/L Tris (pH 7.5), 0.73 mol/L sucrose, 5 mmol/L MgCl2, 0.5% (v/v) NP40], and disrupted by sonication. Cells were centrifuged at 10,000×g for 30 minutes at 4° C. The supernatant was applied to the glutathione-Sepharose column equilibrated with WED buffer [20 mmol/L Tris (pH 7.5), 2 mmol/L MgCl2, 1 mmol/L DTT] followed by washing with WED buffer. GST-ACKD was eluted with 5 mmol/L glutathione solution in 50 mmol/L Tris (pH 9.6). The eluate was dialyzed in WED buffer overnight and concentrated on a sucrose gradient. The expected size of the fusion protein (GST-ACKD) was confirmed by SDS-PAGE (data not shown), and the protein was used for kinase assays as described below.
The purified GST-ACKD (˜5 μg per reaction) was incubated in kinase reaction buffer [50 mmol/L HEPES-KOH (pH 7.2), 10 mmol/L magnesium acetate, 5 mmol/L DTT] containing 7.5 μg MBP, 100 μmol/L ATP, and 4 μCi [γ-^33P]ATP for 10 minutes at 30° C. Reactions were stopped by addition of 5× Laemmli SDS sample buffer. Proteins were separated by SDS-PAGE, and radioactivity incorporated into the substrate was quantified by using the Kodak Imaging Station 2000R. For kinase inhibition experiments, GST-ACKD was preincubated with individual inhibitors in kinase buffer or kinase buffer alone (control) before the addition of MBP following the same protocol as described above. Experiments were done in triplicate.
Several compounds were screened to examine their potency in inhibiting the kinase activity of ACK in vitro. […]
Different kinase inhibitors were added to the ACK-1 kinase reaction as described above in General Procedures. Phosphorylation of MBP was determined by SDS-PAGE and autoradiography. The level of MBP phosphorylation was determined by scanning MBP bands using Kodak Imaging Station 2000R and plotted as arbitrary units. […]

[2] = system: v-Ha-Ras-transformed NIH 3T3 cells; experiment: Growth of v-Ha-Ras-transformed cells after siRNA transfection (cell counting); type: cell-based; conditions: FIG. 2C; counted every 24 hours
Protocol: (§1) A pair of cRNA primers of 21 nucleotides (Dharmacon Research, Inc., Lafayette, Co.) corresponding to the 5′ noncoding of the ACK-1 cDNA (5′-CAUUACCCGCCUAUCUCAUdTdT-3′ and 5′-AUGAGAUAGGCGGGUAAUGdTdT-3′) were annealed to form siRNA (a 19-nucleotide duplex stem with two-nucleotide overhangs on either side) according to the instructions provided by the manufacturer. v-Ha-Ras-transformed or parental NIH 3T3 cells were seeded into 6- or 24-well plates and incubated overnight. The annealed double-stranded ACK siRNA (0.16, 0.4, or 0.8 nmol/L in DMEM) or the sense strand oligonucleotide of ACK siRNA (0.8 nmol/L) was complexed with Cellfectin. siRNA:Cellfectin complexes were added to the serum-free medium and incubated for 3 hours. Cells were then replenished with medium containing 10% FCS and incubated for another 21 hours or as indicated elsewhere. Cells were collected and counted using a hemocytometer; alternatively, cell lysates were prepared for Western blotting. Western blotting was done using ACK-1 antibodies. […]
(§2) After transfection with siRNA at different concentrations (in nmol/L), v-Ha-Ras transformed and parental NIH 3T3 cells were trypsinized and collected every 24 hours. Cell numbers were counted in triplicate.

parental NIH 3T3 cells = experiment: Growth of parental NIH 3T3 cells after siRNA transfection (cell counting); type: cell-based; conditions: FIG. 2D; counted every 24 hours
Protocol: as §1, §2

[3] = system: v-Ha-Ras-transformed NIH 3T3 cells; experiment: Induction of apoptosis in v-Ha-Ras-transformed cells (PARP and ICAD cleavage, cytochrome c release, DNA fragmentation); type: cell-based; conditions: PARP cleavage, ICAD cleavage, chromosomal DNA fragmentation, FIGS. 3A-D
Protocol: (§3) v-Ras-transformed cells (1×10^5) were seeded in a 35 mm dish and incubated under standard cell culture conditions overnight. Cells in DMEM were treated with Cellfectin, the sense strand of the siRNA:Cellfectin complex or the siRNA:Cellfectin complex for 3 hours. The medium was then replaced with DMEM containing 10% FCS and incubated for 21 hours at 37° C. Cells were harvested and used for Western blotting with specific antibodies or for cell cycle or caspase activation assays. For cell cycle and caspase activation assays, cells were resuspended in PBS containing FITC-VAD-fmk for 10 minutes at room temperature. The cells were then fixed with ice-cold 70% ethanol for 30 minutes at 4° C. Following a rinse with PBS, the cells were resuspended in PBS containing RNase (0.1 mg/mL) and then stained with propidium iodine (10 μg/mL) for 10 minutes at room temperature. Cellular fluorescence from a sample of 15,000 cells was analyzed using a Coulter EPICS Profile II Flow Cytometer (Coulter Electronics, Miami, Fla.). Fluorescence excited at 488 nm was detected using a 525±20 band pass filter. Histograms were analyzed using EPICS Workstation Software (version 4).
v-Ras-transformed cells (5×10^5) were seeded in 35 mm dishes and incubated overnight under standard cell culture conditions. […]

[4] = system: v-Ha-Ras-transformed cells; experiment: Cell cycle analysis of v-Ha-Ras-transformed cells by flow cytometry; type: cell-based; conditions: data not shown
Protocol: as §3

ACK-1 = ACK-1 protein level after siRNA transfection (Western blot); type: cell-based
Protocol: as §1
After 24 hours of transfection, cells were collected and lysed with Laemmli SDS sample buffer. Proteins were separated by SDS-PAGE and the level of ACK-1 protein was determined by Western blotting using antibodies against ACK-1. […]

T1 sequence (Q07912 38-378 H250G): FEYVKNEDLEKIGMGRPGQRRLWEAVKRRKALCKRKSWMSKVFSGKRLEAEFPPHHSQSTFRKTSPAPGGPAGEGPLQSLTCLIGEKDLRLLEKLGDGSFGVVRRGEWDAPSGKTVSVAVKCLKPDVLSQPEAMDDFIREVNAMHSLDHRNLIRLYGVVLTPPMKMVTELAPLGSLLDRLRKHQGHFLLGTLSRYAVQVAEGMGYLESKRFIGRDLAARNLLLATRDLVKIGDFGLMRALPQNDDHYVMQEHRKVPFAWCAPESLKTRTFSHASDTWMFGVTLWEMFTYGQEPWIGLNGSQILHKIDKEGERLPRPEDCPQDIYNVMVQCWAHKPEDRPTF

Row | Compound | inhibition of kinase activity of ACK (MBP phosphorylation) [1] | growth of v-Ha-Ras-transformed cells after transfection [2] | growth of parental NIH 3T3 cells after transfection (parental NIH 3T3 cells) | induction of apoptosis (apoptosis markers) [3] | cell cycle arrest [4] | level of ACK-1 at 0.8 nmol/L siRNA (ACK-1; 0.8 nmol/L, v-Ha-Ras-transformed and parental NIH 3T3 cells) | expression of ACK-1 (ACK-1; siRNA 0.16, 0.4 or 0.8 nmol/L, 24 hours, FIGS. 2A and B)
1 | O=c1c(-c2ccc(O)cc2)coc2cc(O)cc(O)c12 [genistein] | very weak activity |  |  |  |  |  | 
2 | O=c1c(O)c(-c2ccc(O)c(O)c2)oc2cc(O)cc(O)c12 [quercetin] | very weak activity |  |  |  |  |  | 
3 | ACK-1 siRNA: annealed 21-nt pair 5′-CAUUACCCGCCUAUCUCAUdTdT-3′ / 5′-AUGAGAUAGGCGGGUAAUGdTdT-3′ corresponding to the 5′ noncoding of ACK-1 cDNA (chain 1 CAUUACCCGCCUAUCUCAUTT; chain 2 AUGAGAUAGGCGGGUAAUGTT; sugars from the 5' end r19 d2, backbone not given here) |  | inhibited the growth of v-Ha-Ras-transformed cells in a dose dependent manner | did not affect the growth of parental NIH 3T3 cells | induced apoptosis | did not block v-Ha-Ras-transformed cells at any particular stage of the cell cycle | reduced the level of ACK-1 significantly | reduced the expression of ACK-1 in a dose-dependent manner
